The numbers were not newly measured in patent publication US20220212015A1, “SURGICAL SYSTEM AND METHODS OF USE” (priority 2021, published 2022), which cites them from elsewhere.

Molecules are shown by their SMILES.

The subject of this data set is myofibroblast formation. The conditions noted are these: Ajmal et al. (2003).

Consider `O=S(=O)([O-])CCS.[Na+]` [MESNA, sodium 2-mercaptoethane sulfonate], for which the “effect on myofibroblast formation” value was “diminish myofibroblast formation”.
